Test results: paper PMC3977580 (Biochemistry, 2014)

Biological target: T1, SaMTAN (5′-methylthioadenosine/S-adenosylhomocysteine nucleosidase) (Staphylococcus aureus, UniProt Q99TQ0)
T1 sequence (Q99TQ0 1-228): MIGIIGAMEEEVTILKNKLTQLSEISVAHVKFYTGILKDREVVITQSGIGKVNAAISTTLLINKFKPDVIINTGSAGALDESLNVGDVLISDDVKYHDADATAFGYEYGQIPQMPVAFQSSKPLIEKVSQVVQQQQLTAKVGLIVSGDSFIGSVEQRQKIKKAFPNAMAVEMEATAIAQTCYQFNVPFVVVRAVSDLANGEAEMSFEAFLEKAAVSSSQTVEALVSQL
Assay: ITC
Type: binding

## CSC[C@H]1CN(Cc2c[nH]c3c(N)ncnc23)C[C@@H]1O [MT-DADMe-ImmA]
  Kd: 9 nM
